Data: patent publication US9914722B2, “Compounds for treating spinal muscular atrophy” (PTC Therapeutics Inc., priority 2012, dated 2018)
“Also recorded” adds a separate entry of the source.

Columns and labels:
[1] = system: human SMN1 minigene full length and Δ7 mRNA (SMN1-A minigene); test: Human SMN1 minigene mRNA end-point semi-quantitative RT-PCR splicing assay in cultured cells; assay type: cell-based; details: HEK293H cells transfected with SMN1-A minigene, 7 hour, increasing concentrations, FIG. 8
Source text: Human SMN1 Minigene mRNA End-Point Semi-Quantitative RT-PCR Splicing Assay in Cultured Cells
The RT-PCR assay is used to visualize and quantify the levels of the human SMN1 minigene full length and Δ7 mRNA in primary cells and cell lines expressing the human SMN1 minigene construct treated with a test compound.
Using the procedure for the preparation of the SMN2 minigene construct described in Biological Example 1, the SMN1 version of the minigene is generated by replacing the sixth nucleotide of exon 7 (a thymine residue) of the SMN2-A minigene construct to cytosine using site-directed mutagenesis. Thus, similar to the SMN2-A minigene construct, the SMN1 minigene construct has a single adenine residue inserted after nucleic residue 48 of exon 7. The SMN1 minigene construct is referred to as SMN1-A.
Protocol. HEK293H cells (10,000 cells/well/199 μL) were transfected, using FuGENE-6 reagent, in a 96-well plate with 15 ng of the SMN1-A minigene reporter plasmid per well. Cells were incubated for 24 hours following transfection. Test compounds were serially diluted 3.16-fold in 100% DMSO to generate a 7-point concentration curve. A solution of test compound (1 μL, 200× in DMSO) was added to each test well. 1 μL DMSO was added to each control well. The plate was incubated for 7 hours in a cell culture incubator (37° C., 5% CO2, 100% relative humidity). The cells were then lysed in Cells-To-Ct lysis buffer and the lysates were stored at −80° C.
Two SMN spliced mRNA are generated from the SMN1 minigene. The term “SMN1 minigene FL” refers to the first spliced product containing exon 7, corresponding to full length SMN1 mRNA. The term “SMN1 minigene Δ7” refers to the second product lacking exon 7.
SMN1 minigene FL and SMN1 minigene Δ7 mRNA are amplified using the primers in Table 11. Primer SMN Forward C (SEQ ID NO. 11) hybridizes to a nucleotide sequence in exon 6 (nucleotide 43 to nucleotide 63), primer SMN Reverse A (SEQ ID NO. 2) hybridizes to a nucleotide sequence in the coding sequence of Firefly luciferase. The combination of these two oligonucleotides detects only SMN1 or SMN2 minigenes (RT-PCR) and will not detect endogenous SMN1 or SMN2 genes. Since the HEK293H cells used in Example 16 were transfected with only the human SMN1 minigene, RT-PCR can visualize and quantify only SMN1 minigene FL and SMN1 minigene Δ7 mRNA.
To synthesize cDNA, 5 μL of lysate, 4 μL of 5× iScript reaction mix, 1 μL of reverse transcriptase, and 10 μL of water are combined and incubated 5 min at 25° C. followed by 30 min at 42° C., followed by 5 min at 85° C. The cDNA solution is stored at −20° C.
To perform endpoint PCR, 5 μL of cDNA, 0.2 μL of 100 μM forward primer, 0.2 μL of 100 μM reverse primer, and 22.5 μL of polymerase super mix are combined in a 96 well semiskirted PCR plate. […]

| Structure (SMILES) | SMN1 minigene FL mRNA (gel band) [1] | SMN1 minigene Δ7 mRNA (gel band) [1] | melting point [°C] |
| --- | --- | --- | --- |
| C[C@@H]1CN(c2ccc3oc(-c4cn5ccccc5n4)cc(=O)c3c2)C[C@H](C)N1 [Cpd 17, 6-[(3R,5S)-3,5-dimethylpiperazin-1-yl]-2-(imidazo[1,2-a]pyridin-2-yl)-4H-chromen-4-one] | progressively more SMN1 minigene FL mRNA; also recorded: dose dependent increase in SMN1 minigene full-length mRNA | less SMN1 minigene Δ7 mRNA; also recorded: dose dependent decrease in SMN1 minigene Δ7 mRNA | 208 to 210 |
| COc1ccc(-c2cc(=O)c3cc(N4CCN[C@@H](C)C4)ccc3o2)cc1F [Cpd 38, 2-(3-fluoro-4-methoxyphenyl)-6-[(3S)-3-methylpiperazin-1-yl]-4H-chromen-4-one] | progressively more SMN1 minigene FL mRNA; also recorded: dose dependent increase in SMN1 minigene full-length mRNA | less SMN1 minigene Δ7 mRNA; also recorded: dose dependent decrease in SMN1 minigene Δ7 mRNA | 100 to 102 |
